{"source": "patent US20240139190A1", "about": "“NOVEL ANTIPARASITIC COMPOUNDS AND METHODS” (The Board of Regents of The University of Texas System, priority 2019, published 2024)", "key": {"purified porcine tubulin": {"biological_target": "T1, purified porcine tubulin (Sus scrofa, UniProt P02550+P02554)", "T1 construct": "purchased Cytoskeleton, Inc. T240", "T1 sequence (P02550 whole entry)": "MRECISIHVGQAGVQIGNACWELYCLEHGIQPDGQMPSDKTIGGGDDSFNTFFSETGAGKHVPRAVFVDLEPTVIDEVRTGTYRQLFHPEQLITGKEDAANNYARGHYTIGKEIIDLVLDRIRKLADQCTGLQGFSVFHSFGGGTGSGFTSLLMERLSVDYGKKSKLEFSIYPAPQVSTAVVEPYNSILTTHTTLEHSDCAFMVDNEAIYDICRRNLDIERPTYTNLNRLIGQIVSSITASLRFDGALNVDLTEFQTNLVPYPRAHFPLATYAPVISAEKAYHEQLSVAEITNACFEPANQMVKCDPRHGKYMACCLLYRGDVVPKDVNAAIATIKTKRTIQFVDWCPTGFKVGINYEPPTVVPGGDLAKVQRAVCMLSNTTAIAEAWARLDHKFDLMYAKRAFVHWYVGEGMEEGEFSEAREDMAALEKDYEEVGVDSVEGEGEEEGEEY", "T1 sequence (P02554 whole entry)": "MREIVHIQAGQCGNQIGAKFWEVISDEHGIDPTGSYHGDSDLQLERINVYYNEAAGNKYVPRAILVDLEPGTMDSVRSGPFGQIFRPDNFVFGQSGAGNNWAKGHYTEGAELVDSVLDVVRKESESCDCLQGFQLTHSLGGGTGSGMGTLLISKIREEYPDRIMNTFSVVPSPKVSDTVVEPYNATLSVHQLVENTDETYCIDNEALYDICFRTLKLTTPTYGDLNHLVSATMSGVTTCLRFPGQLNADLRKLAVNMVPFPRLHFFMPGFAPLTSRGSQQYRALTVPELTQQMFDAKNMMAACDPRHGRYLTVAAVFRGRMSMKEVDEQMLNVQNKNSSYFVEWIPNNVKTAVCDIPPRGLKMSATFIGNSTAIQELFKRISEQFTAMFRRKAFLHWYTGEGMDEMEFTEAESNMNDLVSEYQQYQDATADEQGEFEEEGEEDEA", "assay": "Fluorescent microtubule assembly assay", "assay_type": "biochemical", "details": "mammalian tubulin, fluorescence micrographs", "protocol": "To determine the selectivity of MMV676477, purified porcine tubulin was exposed to a serial dilution of the drug (0 to 25 μM) and absorbance was measured at 340 nm over time. […] To ensure that the absorbance seen at 340 nm reflected microtubule formation and not precipitation, a fluorescent microtubule assembly assay was employed."}, "[1]": {"test_system": "cellular tubulin of L. amazonensis", "assay": "Polymerized vs. unpolymerized tubulin in parasites (differential centrifugation, western blot)", "assay_type": "cell-based, Leishmania amazonensis", "details": "24 h at EC50^72 h, densitometry", "excerpt": "One reason why MMV676477 might affect parasite cell division is that, like paclitaxel, it might affect microtubule polymerization, either directly or indirectly. The degree to which MMV676477 affected microtubules polymerization in cells was examined. […] Centrifugation of these extracts allowed separation of insoluble polymeric (pellet) and soluble dimeric (supernatant) tubulin. […] The intensity of α-tubulin staining was examined by normalizing it to the intensity of a membrane protein (gp46 for promastigotes in FIG. 4D; p8 for amastigotes in FIG. 4E)."}, "[2]": {"test_system": "intracellular L. amazonensis amastigotes", "assay": "Intramacrophage bioluminescence assay with luciferase-expressing L. amazonensis", "assay_type": "cell-based, Leishmania amazonensis", "details": "Leishmania amazonensis, RAW264.7, 72 h, read-out: EC50^72 h against intracellular L. amazonensis amastigotes", "protocol": "Intracellular EC50s were estimated with L. amazonensisluc parasites. Briefly, RAW 264.7 cells or BM primary Mϕs were starved overnight, then infected with metacyclic promastigotes at a Multiplicity of Infection (MOI) of 15 and incubated for another 24 h at 37° C. The plates containing infected RAW 264.7 cells/BM primary M4s were washed five times with serum-free DMEM. Serially diluted compounds were added, and plates were incubated at 37° C. for 72 hrs. Bioluminescence signal was measured as described above.\nRAW 264.7 cells were used to perform a bioluminescence assay with transgenic luciferase-expressing L. amazonensis (FIG. 1C)."}, "[3]": {"test_system": "blood-stage Trypanosoma brucei", "assay": "CellTiter-Glo luminescent assay", "assay_type": "cell-based", "protocol": "The parasites were synchronized using sequential sorbitol lysis treatment, with experiments carried out at least one intra-erythrocytic cycle later. T. brucei single marker (SM) cells were maintained at log phase growth (<1.5×10^6 cells/mL) in HMI-19 media supplemented with 10% FBS (Gibco) and 2.5 μg/mL G418 (Life Technologies) at 37° C. and 5% CO2.\nCompounds were tested against the blood-stage Trypanosoma brucei (48 hr endpoint) and intra-erythrocytic asexual stages Plasmodium falciparum (3D7) using CellTiter-Glo® luminescent and Malaria SYBR green I fluorescence (MSF) assays, respectively. Similar methodology will be used for future experiments.\nMMV676477 was tested against several other parasites: the axenic amastigotes of Leishmania donovani and Leishmania tarentolae, blood-stage Plasmodium falciparum, and Trypanosoma brucei. The compound's activity was measured using alamarBlue®, Malaria SYBR green I fluorescence (MSF) and CellTiter-Glo® luminescent assays. […] In addition, MMV676477 has also been recently reported as having potent activity against Neospora caninum, Cryptosporidium parvum, Toxoplasma gondii, and Entamoeba histolytica."}}, "note": "pEC50: −log10 of the molar value. “Also recorded” adds a separate entry of the source.", "data": [{"compound": "CCc1c(C)nc(-n2nc(C)cc2NC(=O)c2ccccc2SC)[nH]c1=O", "note": "[MMV676477, N-(1-(5-Ethyl-4-methyl-6-oxo-1,6-dihydropyrimidin-2-yl)-3-methyl-1H-pyrazol-5-yl)-2-(methylthio)benzamide]", "values": [{"measurement": "microtubules formed vs control", "setting": "purified porcine tubulin", "value": "many more microtubules were formed"}, {"measurement": "proportion of cellular polymeric tubulin", "setting": "[1]", "value": "significantly increased the proportion of cellular polymeric tubulin"}, {"measurement": "pEC50", "setting": "[2]", "value": 6.29}, {"measurement": "activity against Trypanosoma brucei (in words)", "setting": "[3]", "value": "nanomolar-range cytocidal potency; also recorded: broad activity; also recorded: nanomolar concentrations"}]}]}
